{"source": "ChEMBL document CHEMBL6114976", "about": "“Structure-based design, synthesis and biological evaluation of a novel d-amino acid-containing peptide inhibitor by blocking the RAD51-BRCA2 interaction for the treatment of kidney cancer” (Eur J Med Chem, 2025)", "key": {"[1]": {"biological_target": "T1, DNA repair protein RAD51 homolog 1 (Homo sapiens, UniProt Q06609)", "T1 sequence (Q06609 whole entry)": "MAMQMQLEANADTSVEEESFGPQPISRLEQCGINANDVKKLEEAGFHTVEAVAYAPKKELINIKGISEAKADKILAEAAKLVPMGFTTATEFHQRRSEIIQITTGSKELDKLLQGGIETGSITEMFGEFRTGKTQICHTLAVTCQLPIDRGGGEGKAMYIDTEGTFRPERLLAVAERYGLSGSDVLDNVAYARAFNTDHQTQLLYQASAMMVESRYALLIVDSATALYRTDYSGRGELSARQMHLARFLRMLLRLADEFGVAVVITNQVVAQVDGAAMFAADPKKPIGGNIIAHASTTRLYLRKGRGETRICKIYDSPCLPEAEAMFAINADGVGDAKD", "test": "Binding affinity to RAD51 (unknown origin) assessed as dissociation constant by MST assay"}, "786-0 [2]": {"tested_on": "786-0", "test": "Inhibition of cell proliferation of human 786-0 cells at 3 uM incubated for 72 hrs by MTT assay relative to control", "type": "functional"}, "[3]": {"test": "Stability in mouse serum assessed as compound remaining at 5 uM measured after 180 mins by HPLC analysis", "type": "ADME, cell-free", "settings": "3 h"}, "786-0 [4]": {"tested_on": "786-0", "test": "cells", "settings": "Homo sapiens, 786-0, 72 h", "description": "Inhibition of cell proliferation of human 786-0 cells incubated for 72 hrs by MTT assay"}, "786-0 [5]": {"tested_on": "786-0", "test": "Antitumor activity against human 786-0 cells xenografted in BALB/c nude mouse assessed as tumor growth inhibition administered intravenously measured for 21 days", "type": "functional, cell-based", "settings": "dose 10-20 mg/kg, route iv, time 21.0 day"}, "786-0 [6]": {"tested_on": "786-0", "test": "Induction of DNA damage in human 786-0 cells assessed as increase in gamma-H2AX mRNA level incubated for 48 hrs by qPCR analysis", "type": "functional, cell-based", "settings": "dose 100-300 nM"}, "A498": {"tested_on": "A498", "test": "Inhibition of cell proliferation of human A498 cells incubated for 72 hrs by MTT assay", "type": "functional, cell-based", "settings": "A498, 72 h"}, "786-0 [7]": {"tested_on": "786-0", "test": "Antitumor activity against human 786-0 cells xenografted in BALB/c nude mouse assessed as reduction in tumor weight at 10 to 20 mg/kg, iv measured for 21 days", "type": "functional, organism-based", "settings": "dose 10-20 mg/kg, time 21.0 day"}, "786-0 [8]": {"tested_on": "786-0", "test": "Inhibition of HR repair in human 786-0 cells transfected with plasmids upto 640 nM incubated for 5 hrs by real-time PCR assay", "type": "functional, cell-based"}, "[9]": {"test": "Inhibition of cell proliferation of human SNU-349 cells incubated for 72 hrs by MTT assay", "type": "functional, cell-based", "settings": "SNU-349, 72 h"}, "[10]": {"test": "AUC in BALB/c mouse at 10 mg/kg, iv measured for 0.25 to 24 hrs by LC-MS/MS analysis", "type": "ADME, organism-based", "settings": "in vivo, time 0.25-24 hrs"}, "[11]": {"test": "Toxicity in BALB/c nude mouse xenografted with human 786-0 cells assessed as change in ALT level at 10 to 20 mg/kg, iv measured for 21 days", "type": "organism-based", "settings": "in vivo, 504 h, dose 10-20 mg/kg, time 21 day"}, "786-0 [12]": {"tested_on": "786-0", "test": "Antitumor activity against human 786-0 cells xenografted in BALB/c nude mouse assessed as reduction in tumor volume at 10 to 20 mg/kg, iv measured for 21 days", "type": "functional, organism-based", "settings": "dose 10-20 mg/kg, time 21.0 day"}, "CAKI-1": {"tested_on": "CAKI-1", "test": "Inhibition of cell proliferation of human CAKI-1 cells incubated for 72 hrs by MTT assay", "type": "functional, cell-based", "settings": "CAKI-1, 72 h"}, "[13]": {"test": "Tmax in BALB/c mouse at 10 mg/kg, iv measured for 0.25 to 24 hrs by LC-MS/MS analysis", "type": "ADME, organism-based", "settings": "in vivo, time 0.25-24 hrs"}, "ACHN": {"tested_on": "ACHN", "test": "Inhibition of cell proliferation of human ACHN cells incubated for 72 hrs by MTT assay", "type": "functional, cell-based"}, "[14]": {"test": "Stability in mouse serum assessed as compound remaining at 5 uM measured after 360 mins by HPLC analysis", "type": "ADME, cell-free", "settings": "read-out: Stability"}, "[15]": {"test": "Inhibition of cell proliferation of human GP2-293 cells incubated for 72 hrs by MTT assay", "type": "toxicity, cell-based"}, "[16]": {"biological_target": "T1, DNA repair protein RAD51 homolog 1", "test": "Inhibition of RAD51 (unknown origin) in presence of AlexaFluor 488-labeled BRC4 by fluorescence polarization competitive binding assay"}, "[17]": {"test": "Toxicity in BALB/c nude mouse xenografted with human 786-0 cells assessed as change in BUN level at 10 to 20 mg/kg, iv measured for 21 days", "type": "organism-based", "settings": "in vivo, 504 h, dose 10-20 mg/kg, time 21 day"}, "[18]": {"test": "Cmax in BALB/c mouse at 10 mg/kg, iv measured for 0.25 to 24 hrs by LC-MS/MS analysis", "type": "ADME, organism-based", "settings": "in vivo, time 0.25-24 hrs"}, "[19]": {"test": "Inhibition of cell proliferation of human MCF-10A cells incubated for 72 hrs by MTT assay", "type": "toxicity, cell-based"}, "[20]": {"test": "Toxicity in BALB/c nude mouse xenografted with human 786-0 cells assessed as body weight change at 10 to 20 mg/kg, iv measured for 21 days", "type": "organism-based", "settings": "in vivo, 504 h, dose 10-20 mg/kg, time 21 day"}, "[21]": {"test": "Toxicity in BALB/c nude mouse xenografted with human 786-0 cells assessed as change in CREA level at 10 to 20 mg/kg, iv measured for 21 days", "type": "organism-based", "settings": "in vivo, 504 h, dose 10-20 mg/kg, time 21 day"}, "[22]": {"test": "Toxicity in BALB/c nude mouse xenografted with human 786-0 cells assessed as change in AST level at 10 to 20 mg/kg, iv measured for 21 days", "type": "organism-based", "settings": "in vivo, 504 h, dose 10-20 mg/kg, time 21 day"}, "[23]": {"test": "Half life in BALB/c mouse at 10 mg/kg, iv measured for 0.25 to 24 hrs by LC-MS/MS analysis", "type": "ADME, organism-based", "settings": "in vivo, time 0.25-24 hrs"}, "[24]": {"test": "Inhibition of cell proliferation of human HK-2 cells incubated for 72 hrs by MTT assay", "type": "toxicity, cell-based"}, "[25]": {"test": "Inhibition of cell proliferation of human Hkb20 cells incubated for 72 hrs by MTT assay", "type": "toxicity, cell-based"}}, "note": "Active and inactive are the calls of the source. The calls are words filed in the database; no cut-off is given here. Residues, ends and D or L forms follow the SMILES beside them."}
{"smiles": "CC[C@](C)(NC(=O)[C@@H](NC(=O)[C@H](CC(C)C)NC(=O)[C@H](Cc1c[nH]c2ccccc12)NC(=O)[C@H](CO)NC(C)=O)[C@@H](C)O)C(N)=O", "values": [{"measurement": "Kd", "setting": "[1]", "value": 0.236, "unit": "µM"}, {"measurement": "inhibition at 3 µM", "setting": "786-0 [2]", "value": "> 60", "unit": "%"}]}
{"smiles": "CC[C@H](C)[C@H](NC(=O)[C@H](CCCCN)NC(=O)[C@@H](NC(=O)[C@H](CCCCN)NC(=O)[C@H](CCCCN)NC(=O)CNC(=O)[C@H](CO)NC(=O)[C@H](C)NC(=O)[C@@H](NC(=O)[C@H](Cc1c[nH]cn1)NC(=O)[C@H](Cc1ccccc1)NC(=O)CNC(=O)[C@H](CC(C)C)NC(=O)[C@H](CC(C)C)NC(C)=O)[C@@H](C)O)C(C)C)C(=O)N[C@@H](C)C(=O)N[C@@H](CCCCN)C(N)=O", "note": "(Ac-LLGFHTASGKKVKIAK-NH2)", "values": [{"measurement": "Kd", "setting": "[1]", "value": 0.602, "unit": "µM"}, {"measurement": "Stability", "setting": "[3]", "value": "Unstable"}, {"measurement": "IC50", "setting": "786-0 [4]", "value": "> 10", "unit": "µM"}]}
{"smiles": "CC(=O)N[C@H](CO)C(=O)N[C@@H](Cc1ccccc1)C(=O)N[C@@H](CC(C)C)C(=O)N[C@H](C(=O)N[C@@H](C)C(N)=O)C(C)C", "values": [{"measurement": "Kd", "setting": "[1]", "value": 0.145, "unit": "µM"}, {"measurement": "inhibition at 3 µM", "setting": "786-0 [2]", "value": "> 60", "unit": "%"}]}
{"smiles": "CC[C@](C)(NC(=O)[C@@H](NC(=O)[C@H](CC(C)C)NC(=O)[C@H](Cc1c[nH]c2ccccc12)NC(=O)[C@@H](CO)NC(C)=O)C(C)C)C(N)=O", "values": [{"measurement": "Kd", "setting": "[1]", "value": 0.0567, "unit": "µM"}, {"measurement": "inhibition at 3 µM", "setting": "786-0 [2]", "value": "> 60", "unit": "%"}]}
{"smiles": "CC[C@](C)(NC(=O)[C@@H](NC(=O)[C@H](CC(C)C)NC(=O)[C@H](Cc1ccccc1)NC(=O)[C@@H](CO)NC(C)=O)[C@@H](C)O)C(N)=O", "values": [{"measurement": "Kd", "setting": "[1]", "value": 0.128, "unit": "µM"}, {"measurement": "inhibition at 3 µM", "setting": "786-0 [2]", "value": "> 60", "unit": "%"}]}
{"smiles": "CC[C@](C)(NC(=O)[C@@H](NC(=O)[C@H](C)NC(=O)[C@H](Cc1c[nH]c2ccccc12)NC(=O)[C@@H](CO)NC(C)=O)[C@@H](C)O)C(N)=O", "values": [{"measurement": "Kd", "setting": "[1]", "value": 0.0401, "unit": "µM"}, {"measurement": "inhibition at 3 µM", "setting": "786-0 [2]", "value": "> 60", "unit": "%"}]}
{"smiles": "CC[C@](C)(NC(=O)[C@@H](NC(=O)[C@H](CC(C)C)NC(=O)[C@H](Cc1c[nH]c2ccccc12)NC(=O)[C@@H](CO)NC(C)=O)[C@@H](C)O)C(N)=O", "values": [{"measurement": "Activity", "setting": "786-0 [5]", "value": "Dose-dependent-effect"}, {"measurement": "Activity", "setting": "786-0 [6]", "value": "Dose-dependent-effect"}, {"measurement": "IC50", "setting": "A498", "value": 0.68, "unit": "µM"}, {"measurement": "Activity", "setting": "786-0 [7]", "value": "Active"}, {"measurement": "inhibition", "setting": "786-0 [8]", "value": "Dose-dependent-effect"}, {"measurement": "IC50", "setting": "[9]", "value": 0.25, "unit": "µM"}, {"measurement": "AUC", "setting": "[10]", "value": 13, "unit": "µg·h/mL"}, {"measurement": "Activity", "setting": "[11]", "value": "Non-toxic"}, {"measurement": "Kd", "setting": "[1]", "value": 0.00924, "unit": "µM"}, {"measurement": "inhibition at 3 µM", "setting": "786-0 [2]", "value": "> 90", "unit": "%"}, {"measurement": "Activity", "setting": "786-0 [12]", "value": "Active"}, {"measurement": "IC50", "setting": "CAKI-1", "value": 0.51, "unit": "µM"}, {"measurement": "Tmax", "setting": "[13]", "value": 0.29, "unit": "h"}, {"measurement": "IC50", "setting": "ACHN", "value": 0.31, "unit": "µM"}, {"measurement": "remaining at 6 h, 5 µM", "setting": "[14]", "value": 85, "unit": "%"}, {"measurement": "IC50 at 72 h", "setting": "[15]", "value": "> 10", "unit": "µM"}, {"measurement": "IC50", "setting": "[16]", "value": 0.035, "unit": "µM"}, {"measurement": "Activity", "setting": "[17]", "value": "Non-toxic"}, {"measurement": "Cmax", "setting": "[18]", "value": 6.47, "unit": "µg/mL"}, {"measurement": "IC50 at 72 h", "setting": "[19]", "value": "> 10", "unit": "µM"}, {"measurement": "IC50", "setting": "786-0 [4]", "value": 0.09, "unit": "µM"}, {"measurement": "Activity", "setting": "[20]", "value": "Non-toxic"}, {"measurement": "Activity", "setting": "[21]", "value": "Non-toxic"}, {"measurement": "Activity", "setting": "[22]", "value": "Non-toxic"}, {"measurement": "half-life", "setting": "[23]", "value": 7.38, "unit": "h"}, {"measurement": "IC50 at 72 h", "setting": "[24]", "value": "> 10", "unit": "µM"}, {"measurement": "IC50 at 72 h", "setting": "[25]", "value": "> 10", "unit": "µM"}]}
